For five compounds, Ki and EC50 results are on record in US12252524B2, “GIP/GLP1 co-agonist compounds” (Eli Lilly and Company, priority 2018, dated 2025).

Numbered stars: 1 amine (or outer) side, 2 acyl side, 3 side chain; on linkers, the order of the positions; unused ones are H or OH. Square brackets hold non-standard residues; d marks the D form. Side chains are listed from the residue outwards. Peptide text beside a SMILES is read from it. * marks the point of attachment. Ala(1H-tetrazol-5-yl) = N[C@@H](Cc1nnn[nH]1)C(=O)O; C20 diacid = O=C(O)CCCCCCCCCCCCCCCCCCC(=O)*; C18 diacid = O=C(O)CCCCCCCCCCCCCCCCC(=O)*; αMePhe(2-F) = C[C@](N)(Cc1ccccc1F)C(=O)O; γGlu = O=C(O)[C@H](CCC(=O)[*:2])N[*:1]; αMeY = C[C@](N)(Cc1ccc(O)cc1)C(=O)O; αMeF = C[C@](N)(Cc1ccccc1)C(=O)O; αMeL = CC(C)C[C@](C)(N)C(=O)O; Orn = NCCC[C@H](N)C(=O)O; AEEA = NCCOCCOCC(=O)O; Aib = CC(C)(N)C(=O)O

One experiment has as its target T1, human Gcg receptor (Homo sapiens, UniProt P47871).
T1 construct: expressed in transfected cells; crude membranes
The experiment is described as follows: [125I]-Glucagon binding (SPA), human Gcg receptor. The settings on record: read-out: hGLcgR Ki, nM (SEM, n). Summed up:
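Cell pellets were lysed in hypotonic Tris buffer, pH 7.5, homogenized, and spun at low then high speed to give crude membranes. Ki was derived from the fitted IC50.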

In a further experiment the target is T2, human GIP receptor (Homo sapiens, UniProt P48546).
T2 construct: expressed in transfected cells; crude membranes
T2 sequence (P48546 22-466): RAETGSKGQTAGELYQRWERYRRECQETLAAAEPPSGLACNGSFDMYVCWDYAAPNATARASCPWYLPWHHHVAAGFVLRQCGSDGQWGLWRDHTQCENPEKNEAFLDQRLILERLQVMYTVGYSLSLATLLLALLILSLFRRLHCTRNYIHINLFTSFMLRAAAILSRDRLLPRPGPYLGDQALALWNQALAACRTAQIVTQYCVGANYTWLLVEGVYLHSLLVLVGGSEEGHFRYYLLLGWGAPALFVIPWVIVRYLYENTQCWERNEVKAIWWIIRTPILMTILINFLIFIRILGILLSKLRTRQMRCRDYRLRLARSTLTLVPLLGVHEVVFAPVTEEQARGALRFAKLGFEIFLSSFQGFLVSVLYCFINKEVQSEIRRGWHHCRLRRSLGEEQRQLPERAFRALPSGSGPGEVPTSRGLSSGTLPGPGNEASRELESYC
The experiment is described as follows: [125I]-GIP binding (SPA), human GIP receptor. The note with it: read-out: hGIPR Ki, nM (SEM, n).

Experiment [1] addresses human GLP-1 receptor (GLP-1R) (Homo sapiens, UniProt P43220). Kind of experiment: cAMP pharmacological functional assay in presence of casein, hGLP-1R. The settings on record: HEK293 cells expressing hGLP-1R, 0.1% Casein, geometric mean; read-out: hGLP1R cAMP Rel EC50 nM (SEM, n). The class given is cell-based.
Experiment [2] addresses T3, gastric inhibitory peptide receptor (GIPR) (Homo sapiens, UniProt P48546).
T3 sequence (P48546 22-466): T2 sequence (P48546 22-466)
The experiment is described as follows: cAMP pharmacological functional assay in presence of casein, hGIPR. The class given is cell-based. The settings on record: HEK293 cells expressing hGIPR, 0.1% Casein, geometric mean; read-out: hGIPR cAMP Rel EC50 nM (SEM, n).

In the next experiment the target is human GLP-1R (Homo sapiens, UniProt P43220). The experiment is described as follows: [125I]-GLP-1 binding (SPA), human GLP-1 receptor. The settings on record: read-out: hGLP1R Ki, (nM) (SEM, n). Also noted: expressed in transfected cells; crude membranes. Summed up: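 Assay buffer: HEPES 25 mM, pH 7.4, CaCl2 2.5 mM, MgCl2 1 mM, with EDTA-free protease inhibitors. Receptor came from crude cell membranes prepared by homogenization and centrifugation at 4° C. IC50s came from four-parameter fits (maximum, minimum, IC50, Hill slope) and were expressed as Ki geometric means with SEM.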
Sequence of human GLP-1R (P43220 24-463): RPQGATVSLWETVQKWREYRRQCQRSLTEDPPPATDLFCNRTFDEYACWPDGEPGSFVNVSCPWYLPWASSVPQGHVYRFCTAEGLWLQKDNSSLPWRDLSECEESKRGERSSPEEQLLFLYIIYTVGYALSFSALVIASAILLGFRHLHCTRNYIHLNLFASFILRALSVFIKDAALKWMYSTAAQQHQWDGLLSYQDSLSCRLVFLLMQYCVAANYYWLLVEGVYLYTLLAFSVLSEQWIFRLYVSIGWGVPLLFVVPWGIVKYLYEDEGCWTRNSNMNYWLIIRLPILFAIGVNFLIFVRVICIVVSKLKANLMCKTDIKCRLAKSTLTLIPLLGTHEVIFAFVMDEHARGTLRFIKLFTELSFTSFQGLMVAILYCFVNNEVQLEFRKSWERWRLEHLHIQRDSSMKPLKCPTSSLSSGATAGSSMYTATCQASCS

In general, Ki refers to a measure of affinity in units of concentration, obtained from inhibition or displacement. As usually defined, the EC50 is the concentration that produces a half-maximal response.

T1 sequence (P47871 26-477): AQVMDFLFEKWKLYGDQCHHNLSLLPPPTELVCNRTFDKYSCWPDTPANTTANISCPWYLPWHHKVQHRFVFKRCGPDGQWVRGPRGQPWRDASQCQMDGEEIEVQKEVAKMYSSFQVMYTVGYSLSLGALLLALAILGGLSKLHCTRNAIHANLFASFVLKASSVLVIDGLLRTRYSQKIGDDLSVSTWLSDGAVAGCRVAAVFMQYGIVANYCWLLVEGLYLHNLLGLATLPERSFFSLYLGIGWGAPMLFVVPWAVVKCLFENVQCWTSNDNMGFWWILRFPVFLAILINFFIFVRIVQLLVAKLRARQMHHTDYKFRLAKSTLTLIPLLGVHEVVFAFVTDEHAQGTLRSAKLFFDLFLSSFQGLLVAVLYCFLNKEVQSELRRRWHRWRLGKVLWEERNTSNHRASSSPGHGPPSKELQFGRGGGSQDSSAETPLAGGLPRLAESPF
Sequence of human GLP-1 receptor (GLP-1R) (P43220 24-463): as the sequence (P43220 24-463) above

Take `CC[C@H](C)[C@H](NC(=O)[C@H](CC(C)C)NC(=O)[C@H](Cc1ccc(O)cc1)NC(=O)[C@H](Cc1c[nH]cn1)NC(=O)[C@@H](NC(=O)[C@H](Cc1ccccc1)NC(=O)[C@H](CCC(=O)O)NC(=O)C(C)(C)NC(=O)[C@H](CCC(N)=O)NC(=O)[C@H](C)NC(=O)[C@H](CCCCNC(=O)COCCOCCNC(=O)COCCOCCNC(=O)CC[C@H](NC(=O)CCCCCCCCCCCCCCCCCCC(=O)O)C(=O)O)NC(=O)[C@H](CCC(=O)O)NC(=O)[C@H](CC(=O)O)NC(=O)[C@H](CC(C)C)NC(=O)[C@](C)(CC(C)C)NC(=O)[C@@H](NC(=O)[C@H](CO)NC(=O)[C@H](Cc1ccc(O)cc1)NC(=O)[C@H](CC(=O)O)NC(=O)[C@H](CO)NC(=O)[C@@H](NC(=O)[C@](C)(Cc1ccccc1F)NC(=O)[C@@H](NC(=O)CNC(=O)[C@H](CCC(=O)O)NC(=O)C(C)(C)NC(=O)[C@@H](N)Cc1ccc(O)cc1)[C@@H](C)O)[C@@H](C)O)[C@@H](C)CC)[C@@H](C)CC)C(=O)N[C@@H](CCC(=O)O)C(=O)NCC(=O)NCC(=O)N1CCC[C@H]1C(=O)N[C@@H](CO)C(=O)N[C@@H](CO)C(=O)NCC(=O)N[C@@H](C)C(=O)N1CCC[C@H]1C(=O)N1CCC[C@H]1C(=O)N1CCC[C@H]1C(=O)N[C@@H](CO)C(N)=O` [Example 153] (H-Y[Aib]EGT[αMePhe(2-F)]TSDYSI[αMeL]LDEK([AEEA-AEEA-γGlu-C20 diacid])AQ[Aib]EFIHYLIEGGPSSGAPPPS-NH2; N-terminus assumed): the Ki stood at 43.8 nM on human Gcg receptor, 0.0578 nM on human GIP receptor and 22.2 nM on human GLP-1R. Also, the EC50 in experiment [1] is 0.0904 nM; in experiment [2], 0.0634 nM.
With `CC[C@H](C)[C@H](NC(=O)[C@H](CC(C)C)NC(=O)[C@H](Cc1ccc(O)cc1)NC(=O)[C@@H](CCC(=O)O)NC(=O)[C@@H](NC(=O)[C@H](Cc1ccccc1)NC(=O)[C@H](CCC(=O)O)NC(=O)C(C)(C)NC(=O)[C@H](CCC(N)=O)NC(=O)[C@H](C)NC(=O)[C@H](CCCCNC(=O)COCCOCCNC(=O)COCCOCCNC(=O)CC[C@H](NC(=O)CCCCCCCCCCCCCCCCC(=O)O)C(=O)O)NC(=O)[C@H](CCC(=O)O)NC(=O)[C@H](CC(=O)O)NC(=O)[C@H](CC(C)C)NC(=O)[C@](C)(CC(C)C)NC(=O)[C@@H](NC(=O)[C@H](CO)NC(=O)[C@H](Cc1ccc(O)cc1)NC(=O)[C@H](CC(=O)O)NC(=O)[C@H](CO)NC(=O)[C@@H](NC(=O)[C@](C)(Cc1ccccc1F)NC(=O)[C@@H](NC(=O)CNC(=O)[C@H](CCC(=O)O)NC(=O)C(C)(C)NC(=O)[C@@H](N)Cc1ccc(O)cc1)[C@@H](C)O)[C@@H](C)O)[C@@H](C)CC)[C@@H](C)CC)C(=O)N[C@@H](CCC(=O)O)C(=O)NCC(=O)NCC(=O)N1CCC[C@H]1C(=O)N[C@@H](CO)C(=O)N[C@@H](CO)C(=O)NCC(=O)N[C@@H](C)C(=O)N1CCC[C@H]1C(=O)N1CCC[C@H]1C(=O)N1CCC[C@H]1C(=O)N[C@@H](CO)C(N)=O` [Example 221] (H-Y[Aib]EGT[αMePhe(2-F)]TSDYSI[αMeL]LDEK([AEEA-AEEA-γGlu-C18 diacid])AQ[Aib]EFI[dE]YLIEGGPSSGAPPPS-NH2), the Ki on human Gcg receptor was 154 nM; at human GIP receptor, 0.0414 nM; on human GLP-1R, 1.77 nM. The EC50 was 0.057 nM in experiment [1] and 0.0445 nM in experiment [2].
Turning to `CC[C@H](C)[C@H](NC(=O)[C@H](CC(C)C)NC(=O)[C@H](Cc1ccc(O)cc1)NC(=O)[C@H](CCC(=O)O)NC(=O)[C@@H](NC(=O)[C@H](Cc1ccccc1)NC(=O)[C@H](C)NC(=O)C(C)(C)NC(=O)[C@H](CCC(N)=O)NC(=O)[C@H](C)NC(=O)[C@H](CCCCNC(=O)COCCOCCNC(=O)COCCOCCNC(=O)CC[C@H](NC(=O)CCCCCCCCCCCCCCCCCCC(=O)O)C(=O)O)NC(=O)[C@H](CO)NC(=O)[C@H](CC(=O)O)NC(=O)[C@H](CC(C)C)NC(=O)[C@H](CC(C)C)NC(=O)[C@@H](NC(=O)[C@H](CO)NC(=O)[C@H](Cc1ccc(O)cc1)NC(=O)[C@H](CC(=O)O)NC(=O)[C@H](CO)NC(=O)[C@@H](NC(=O)[C@H](Cc1ccccc1)NC(=O)[C@@H](NC(=O)CNC(=O)[C@H](CCC(=O)O)NC(=O)C(C)(C)NC(=O)[C@@H](N)Cc1ccc(O)cc1)[C@@H](C)O)[C@@H](C)O)[C@@H](C)CC)[C@@H](C)CC)C(=O)N[C@@H](CCC(=O)O)C(=O)NCC(=O)NCC(=O)N1CCC[C@H]1C(=O)N[C@@H](CO)C(=O)N[C@@H](CO)C(=O)NCC(=O)N[C@@H](C)C(=O)N1CCC[C@H]1C(=O)N1CCC[C@H]1C(=O)N1CCC[C@H]1C(=O)N[C@@H](CO)C(N)=O` [Example 9] (H-Y[Aib]EGTFTSDYSILLDSK([AEEA-AEEA-γGlu-C20 diacid])AQ[Aib]AFIEYLIEGGPSSGAPPPS-NH2), the Ki was 375 nM at human Gcg receptor, 0.127 nM at human GIP receptor and 14.9 nM at human GLP-1R. Further, the EC50 in experiment [1] is 0.194 nM; in experiment [2], 0.21 nM.
`CC[C@H](C)[C@H](NC(=O)[C@H](CC(C)C)NC(=O)[C@](C)(Cc1ccc(O)cc1)NC(=O)[C@@H](CCC(=O)O)NC(=O)[C@@H](NC(=O)[C@H](Cc1ccccc1)NC(=O)[C@@H](NC(=O)C(C)(C)NC(=O)[C@H](CCC(N)=O)NC(=O)[C@H](C)NC(=O)[C@H](CCCCNC(=O)COCCOCCNC(=O)COCCOCCNC(=O)CC[C@H](NC(=O)CCCCCCCCCCCCCCCCC(=O)O)C(=O)O)NC(=O)[C@H](CCCN)NC(=O)[C@H](CC(=O)O)NC(=O)[C@H](CC(C)C)NC(=O)[C@](C)(CC(C)C)NC(=O)[C@@H](NC(=O)[C@H](CO)NC(=O)[C@@H](NC(=O)[C@H](CC(=O)O)NC(=O)[C@H](CO)NC(=O)[C@@H](NC(=O)[C@](C)(Cc1ccccc1F)NC(=O)[C@@H](NC(=O)CNC(=O)[C@H](CCC(=O)O)NC(=O)C(C)(C)NC(=O)[C@@H](N)Cc1ccc(O)cc1)[C@@H](C)O)[C@@H](C)O)C(C)C)[C@@H](C)CC)[C@@H](C)O)[C@@H](C)CC)C(=O)N[C@@H](CCC(=O)O)C(=O)NCC(=O)NCC(=O)N1CCC[C@H]1C(=O)N[C@@H](CO)C(=O)N[C@@H](CO)C(=O)NCC(=O)N[C@@H](C)C(=O)N1CCC[C@H]1C(=O)N1CCC[C@H]1C(=O)N1CCC[C@H]1C(=O)N[C@@H](CO)C(N)=O` [Example 241] (H-Y[Aib]EGT[αMePhe(2-F)]TSDVSI[αMeL]LD[Orn]K([AEEA-AEEA-γGlu-C18 diacid])AQ[Aib]TFI[dE][αMeY]LIEGGPSSGAPPPS-NH2; N-terminus assumed): the Ki at human Gcg receptor was 167 nM; at human GIP receptor it was 0.042 nM; at human GLP-1R, 0.799 nM. Further, the EC50 in experiment [1] was 0.0175 nM; in experiment [2], 0.0257 nM.
Consider `CC[C@H](C)[C@H](NC(=O)[C@H](CC(C)C)NC(=O)[C@H](Cc1ccc(O)cc1)NC(=O)[C@H](CCC(=O)O)NC(=O)[C@@H](NC(=O)[C@H](Cc1ccccc1)NC(=O)[C@H](C)NC(=O)C(C)(C)NC(=O)[C@H](CCC(N)=O)NC(=O)[C@H](C)NC(=O)[C@H](CCCCNC(=O)COCCOCCNC(=O)COCCOCCNC(=O)CC[C@H](NC(=O)CCCCCCCCCCCCCCCCCCC(=O)O)C(=O)O)NC(=O)[C@H](CCC(=O)O)NC(=O)[C@H](CC(=O)O)NC(=O)[C@H](CC(C)C)NC(=O)[C@](C)(CC(C)C)NC(=O)[C@@H](NC(=O)[C@H](CO)NC(=O)[C@H](Cc1ccc(O)cc1)NC(=O)[C@H](CC(=O)O)NC(=O)[C@H](CO)NC(=O)[C@@H](NC(=O)[C@](C)(Cc1ccccc1)NC(=O)[C@@H](NC(=O)CNC(=O)[C@H](Cc1nn[nH]n1)NC(=O)C(C)(C)NC(=O)[C@@H](N)Cc1ccc(O)cc1)[C@@H](C)O)[C@@H](C)O)[C@@H](C)CC)[C@@H](C)CC)C(=O)N[C@@H](CCC(=O)O)C(=O)NCC(=O)NCC(=O)N1CCC[C@H]1C(=O)N[C@@H](CO)C(=O)N[C@@H](CO)C(=O)NCC(=O)N[C@@H](C)C(=O)N1CCC[C@H]1C(=O)N1CCC[C@H]1C(=O)N1CCC[C@H]1C(=O)N[C@@H](CO)C(N)=O` [Example 120] (H-Y[Aib][Ala(1H-tetrazol-5-yl)]GT[αMeF]TSDYSI[αMeL]LDEK([AEEA-AEEA-γGlu-C20 diacid])AQ[Aib]AFIEYLIEGGPSSGAPPPS-NH2; N-terminus assumed), for which the Ki was 93.6 nM on human Gcg receptor, 0.11 nM at human GIP receptor and 11.7 nM at human GLP-1R. For the same compound, the results for the EC50 in experiment [1] and in experiment [2] were 0.201 nM and 0.122 nM, respectively.
